According to patent US6630510B1, “Substituted succinic acid metallo-β-lactamase inhibitors and their use in treating bacterial infections” (priority 1999, dated 2003):

How the values were obtained:
[1] = system: E. coli BL21(DE3)/pET30a-IMP-1; assay: Carbapenem sensitivity (MIC) of E. coli expressing IMP-1; assay type: cell-based; settings: for fold reduced sensitivity resulting from basal (uninduced) IMP-1 expression: pET30a-IMP-1 introduced into E. coli BL21(DE3)
Text: A laboratory strain of E.coli engineered to express IMP-1 was used to evaluate the ability of succinate derivatives to reverse metallo-β-lactamase-mediated carbapenem resistance in bacteria. Native IMP-1, which included the N-terminal periplasmic signal sequence, was PCR amplified from […] isolated from a carbapenem resistant P. aeruginosa clinical isolate, CL56673, and cloned into the pET30a vector. […] To evaluate IMP-1 inhibitors, an overnight culture of E. coli BL2(DE3)/pET30a-IMP-1, grown 35° C. in LB broth (Difco) or Mueller Hinton broth (BBL) supplemented with kanamycin ([…]), was diluted to a final concentration of ˜10^5 cells/ml in Mueller Hinton broth (BBL) containing a subinhibitory concentration (0.25×MIC) of the carbapenem, (1S,5R,6S)-1-methyl-2-{7-[4-(aminocarbonylmethyl)-1,4-diazoniabicyclo(2.2.2)octan-1-yl]methyl-fluoren-9-on-3-yl}-6-(1R-hydroxyethyl)carbapen-2-em-3-carboxylate chloride. Various concentrations of IMP-1 inhibitor were added to the bacterial growth medium and their capacity to effect a four-fold or greater increase in sensitivity to the carbapenem was monitored.

E. coli BL21(DE3) = assay: Carbapenem MIC in E. coli without IMP-1 expression; assay type: cell-based; settings: without expression of IMP-1

Compound | fold reduced sensitivity resulting from basal (uninduced) IMP-1 expression [1] [fold] | minimum inhibitory concentration (MIC) ([1]; with expression of IMP-1) [µg/mL] | minimum inhibitory concentration (MIC) (E. coli BL21(DE3)) [µg/mL]
C[C@@H](O)[C@H]1C(=O)N2C(C(=O)O)=C(S[C@@H]3CN[C@H](C(=O)N(C)C)C3)[C@H](C)[C@H]12 [meropenem, reference compound] | 64 |  | 
(1S,5R,6S)-1-methyl-2-{7-[4-(aminocarbonylmethyl)-1,4-diazoniabicyclo(2.2.2)octan-1-yl]methyl-fluoren-9-on-3-yl}-6-(1R-hydroxyethyl)-carbapen-2-em-3-carboxylate chloride | 500 | 16 to 32 | 0.06 to 0.12
C[C@@H](O)[C@H]1C(=O)N2C(C(=O)O)=C(SCCN=CN)C[C@H]12 [impenem, imipenem, reference compound] | 4 |  | 
